Drawing on ChEMBL document CHEMBL4507263, “Data for DCP probe BAY-474” (2021), this text covers inhibition and residual activity for two molecules.

In assay [1] the target is Protein kinase C epsilon type (Homo sapiens) (UniProt Q02156). The assay can be described thus: PKCepsilon (h) Millipore kinase activity assay. To be noted: Compound concentration 1.0 uM.
The target in assay [2] is Serine/threonine-protein kinase TAO1 (Homo sapiens) (UniProt Q7L7X3). The assay can be described thus: TAO1 (h) Millipore kinase activity assay. The settings on record: Compound concentration 1.0 uM.
The next assay is filed under the species Rattus norvegicus. The assay is described as follows: Inhibition of Imidazoline I2, Central at 10 µM in the Eurofins-Panlabs radioligand binding assay (Eurofins_assay_241000). The arrangement: ligand concentration 2 nM. To be noted: Compound concentration 10.0 uM.
For assay [3], the target named is Protein kinase C eta type (Homo sapiens) (UniProt P24723). The assay is described as follows: PKCeta (h) Millipore kinase activity assay. The settings on record: Compound concentration 1.0 uM.
The target of assay [4] is Calcium/calmodulin-dependent protein kinase type II subunit delta (Homo sapiens) (UniProt Q13557). The assay is described as follows: CaMKIIdelta (h) Millipore kinase activity assay. To be noted: Compound concentration 1.0 uM.
Assay [5] deals with Endothelin receptor type B (Homo sapiens) (UniProt P24530). To be noted: Compound concentration 10.0 uM.
Sequence of Endothelin receptor type B (Homo sapiens) (P24530 whole entry): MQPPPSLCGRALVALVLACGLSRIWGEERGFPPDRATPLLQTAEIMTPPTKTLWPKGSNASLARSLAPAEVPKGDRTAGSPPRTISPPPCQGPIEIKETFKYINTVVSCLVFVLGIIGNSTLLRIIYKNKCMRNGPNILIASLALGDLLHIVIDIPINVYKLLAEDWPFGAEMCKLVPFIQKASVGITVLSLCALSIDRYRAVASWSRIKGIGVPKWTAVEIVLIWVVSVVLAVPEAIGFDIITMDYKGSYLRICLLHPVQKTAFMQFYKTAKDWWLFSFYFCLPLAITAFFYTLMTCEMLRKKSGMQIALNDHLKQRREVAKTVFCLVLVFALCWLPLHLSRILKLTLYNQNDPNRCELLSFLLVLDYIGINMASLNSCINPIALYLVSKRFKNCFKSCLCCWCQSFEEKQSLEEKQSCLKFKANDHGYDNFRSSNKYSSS
Assay [6] has as its target Mast/stem cell growth factor receptor Kit (Homo sapiens) (UniProt P10721). The assay is described as follows: cKit (h) Millipore kinase activity assay. The settings on record: Compound concentration 1.0 uM.
Assay [7] addresses Testis-specific serine/threonine-protein kinase 1 (Homo sapiens) (UniProt Q9BXA7). The assay can be described thus: TSSK1 (h) Millipore kinase activity assay. To be noted: Compound concentration 1.0 uM.
The target in assay [8] is Tyrosine-protein kinase receptor TYRO3 (Homo sapiens) (UniProt Q06418). The assay is described as follows: Rse (h) Millipore kinase activity assay. The settings on record: Compound concentration 1.0 uM.
Sequence of Tyrosine-protein kinase receptor TYRO3 (Homo sapiens) (Q06418 whole entry): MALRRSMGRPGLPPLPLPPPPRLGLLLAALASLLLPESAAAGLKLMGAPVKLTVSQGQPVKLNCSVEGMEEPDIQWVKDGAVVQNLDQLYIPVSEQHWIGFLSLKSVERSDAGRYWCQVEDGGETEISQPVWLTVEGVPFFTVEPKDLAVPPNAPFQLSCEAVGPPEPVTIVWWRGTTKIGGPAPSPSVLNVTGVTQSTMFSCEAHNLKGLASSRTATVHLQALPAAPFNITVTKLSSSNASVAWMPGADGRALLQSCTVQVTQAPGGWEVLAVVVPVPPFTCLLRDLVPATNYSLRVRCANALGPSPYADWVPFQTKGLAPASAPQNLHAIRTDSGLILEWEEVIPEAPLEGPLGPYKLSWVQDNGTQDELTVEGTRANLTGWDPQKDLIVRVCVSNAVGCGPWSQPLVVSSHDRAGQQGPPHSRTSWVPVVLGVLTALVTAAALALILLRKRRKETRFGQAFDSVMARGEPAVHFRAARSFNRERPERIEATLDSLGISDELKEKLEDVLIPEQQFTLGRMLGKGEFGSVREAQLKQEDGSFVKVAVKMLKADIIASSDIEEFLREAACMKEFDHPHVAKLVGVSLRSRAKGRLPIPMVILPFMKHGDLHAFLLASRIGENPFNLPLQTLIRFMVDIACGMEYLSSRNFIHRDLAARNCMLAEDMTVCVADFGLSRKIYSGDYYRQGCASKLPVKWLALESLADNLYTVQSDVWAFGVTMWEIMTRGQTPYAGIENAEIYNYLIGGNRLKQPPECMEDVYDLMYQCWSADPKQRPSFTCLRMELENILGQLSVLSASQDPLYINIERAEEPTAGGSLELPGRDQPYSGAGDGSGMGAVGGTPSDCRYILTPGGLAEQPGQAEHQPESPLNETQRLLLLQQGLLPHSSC
The target in assay [9] is Sodium-dependent noradrenaline transporter (Homo sapiens) (UniProt P23975). The settings on record: Compound concentration 10.0 uM.
Assay [10] has as its target Insulin receptor (Homo sapiens) (UniProt P06213). The assay can be described thus: IR (h) Millipore kinase activity assay. The settings on record: Compound concentration 1.0 uM.
Assay [11] deals with Dual specificity tyrosine-phosphorylation-regulated kinase 2 (Homo sapiens) (UniProt Q92630). The assay is described as follows: DYRK2 (h) Millipore kinase activity assay. The settings on record: Compound concentration 1.0 uM.
For assay [12], the target named is RAC-beta serine/threonine-protein kinase (Homo sapiens) (UniProt P31751). The assay is described as follows: PKBbeta (h) Millipore kinase activity assay. To be noted: Compound concentration 1.0 uM.
The target of assay [13] is Calcium/calmodulin-dependent protein kinase type 1 (Homo sapiens) (UniProt Q14012). The assay is described as follows: CaMKI (h) Millipore kinase activity assay. The settings on record: Compound concentration 1.0 uM.
Sequence of Calcium/calmodulin-dependent protein kinase type 1 (Homo sapiens) (Q14012 whole entry, looked up): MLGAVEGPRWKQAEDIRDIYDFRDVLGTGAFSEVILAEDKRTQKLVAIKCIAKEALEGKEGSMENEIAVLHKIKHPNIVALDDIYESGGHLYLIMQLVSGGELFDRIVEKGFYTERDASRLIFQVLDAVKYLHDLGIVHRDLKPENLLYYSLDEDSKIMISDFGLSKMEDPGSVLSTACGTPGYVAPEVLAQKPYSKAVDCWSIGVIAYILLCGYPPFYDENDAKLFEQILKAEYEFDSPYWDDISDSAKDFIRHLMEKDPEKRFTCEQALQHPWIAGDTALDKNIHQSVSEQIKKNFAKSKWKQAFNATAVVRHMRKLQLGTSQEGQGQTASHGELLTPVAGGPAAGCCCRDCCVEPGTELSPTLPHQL
For assay [14], the target named is Beta-1 adrenergic receptor (Homo sapiens) (UniProt P08588). To be noted: Compound concentration 10.0 uM.
Assay [15] addresses Mitogen-activated protein kinase kinase kinase 7 (Homo sapiens) (UniProt O43318). To be noted: Compound concentration 1000.0 nM.
The target of assay [16] is Serine/threonine-protein kinase NLK (Homo sapiens) (UniProt Q9UBE8). To be noted: Compound concentration 1000.0 nM.
Assay [17] has as its target Ephrin type-A receptor 4 (Homo sapiens) (UniProt P54764). The settings on record: Compound concentration 1000.0 nM.
Assay [18] addresses SRSF protein kinase 1 (Homo sapiens) (UniProt Q96SB4). The settings on record: Compound concentration 1000.0 nM.
Assay [19] concerns the target Dual specificity protein kinase TTK (Homo sapiens) (UniProt P33981). To be noted: Compound concentration 1000.0 nM.
The target of assay [20] is Megakaryocyte-associated tyrosine-protein kinase (Homo sapiens) (UniProt P42679). To be noted: Compound concentration 1000.0 nM.
Assay [21] concerns Mast/stem cell growth factor receptor Kit (Homo sapiens), P10721 [V559D,V654A]. To be noted: Compound concentration 1000.0 nM.
Sequence of Mast/stem cell growth factor receptor Kit (Homo sapiens), P10721 [V559D,V654A] (P10721 whole entry V559D/V654A): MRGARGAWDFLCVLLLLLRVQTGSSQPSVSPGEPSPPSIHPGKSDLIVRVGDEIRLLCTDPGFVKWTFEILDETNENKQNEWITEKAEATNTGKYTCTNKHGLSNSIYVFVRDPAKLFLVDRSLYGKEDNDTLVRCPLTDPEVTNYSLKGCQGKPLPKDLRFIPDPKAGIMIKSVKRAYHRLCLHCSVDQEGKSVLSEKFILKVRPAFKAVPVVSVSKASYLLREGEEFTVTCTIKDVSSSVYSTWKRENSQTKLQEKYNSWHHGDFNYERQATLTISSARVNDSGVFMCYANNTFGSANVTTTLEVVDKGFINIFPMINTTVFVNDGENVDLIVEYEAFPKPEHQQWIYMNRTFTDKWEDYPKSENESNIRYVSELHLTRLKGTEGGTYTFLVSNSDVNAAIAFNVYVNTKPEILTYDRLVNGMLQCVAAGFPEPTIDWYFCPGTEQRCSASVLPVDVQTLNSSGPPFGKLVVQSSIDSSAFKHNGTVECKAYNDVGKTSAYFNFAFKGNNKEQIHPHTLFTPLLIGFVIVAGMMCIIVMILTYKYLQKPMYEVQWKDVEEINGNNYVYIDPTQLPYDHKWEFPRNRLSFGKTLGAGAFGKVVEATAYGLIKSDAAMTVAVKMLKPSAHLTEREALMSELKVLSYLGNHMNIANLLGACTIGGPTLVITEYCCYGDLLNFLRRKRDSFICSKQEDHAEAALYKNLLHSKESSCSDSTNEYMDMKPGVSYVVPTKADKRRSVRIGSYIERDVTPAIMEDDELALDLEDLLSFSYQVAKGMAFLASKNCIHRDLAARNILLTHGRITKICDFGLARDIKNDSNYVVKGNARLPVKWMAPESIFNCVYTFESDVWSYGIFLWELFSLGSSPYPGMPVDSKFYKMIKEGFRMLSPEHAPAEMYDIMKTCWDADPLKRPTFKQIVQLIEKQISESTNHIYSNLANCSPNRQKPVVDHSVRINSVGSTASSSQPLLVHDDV
Assay [22] deals with Ribosomal protein S6 kinase alpha-6 (Homo sapiens) (UniProt Q9UK32). The settings on record: Compound concentration 1000.0 nM.
In assay [23] the test system is Epidermal growth factor receptor (Homo sapiens), P00533 [G719C]. The settings on record: Compound concentration 1000.0 nM.
In assay [24] the target is Casein kinase I isoform gamma-2 (Homo sapiens) (UniProt P78368). To be noted: Compound concentration 1000.0 nM.
Sequence of Casein kinase I isoform gamma-2 (Homo sapiens) (P78368 whole entry, looked up, canonical isoform): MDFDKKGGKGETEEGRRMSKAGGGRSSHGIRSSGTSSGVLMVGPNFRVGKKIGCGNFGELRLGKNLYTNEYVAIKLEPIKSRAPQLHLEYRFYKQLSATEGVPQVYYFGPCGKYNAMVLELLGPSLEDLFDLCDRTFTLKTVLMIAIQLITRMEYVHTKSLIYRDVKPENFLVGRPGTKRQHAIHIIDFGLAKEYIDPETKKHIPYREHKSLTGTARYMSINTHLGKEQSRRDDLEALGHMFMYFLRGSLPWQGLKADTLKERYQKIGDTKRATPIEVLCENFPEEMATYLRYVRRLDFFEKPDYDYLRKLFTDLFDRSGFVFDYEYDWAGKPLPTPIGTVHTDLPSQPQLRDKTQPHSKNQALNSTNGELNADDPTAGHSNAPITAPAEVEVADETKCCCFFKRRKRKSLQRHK
The target in assay [25] is Vascular endothelial growth factor receptor 2 (Homo sapiens) (UniProt P35968). The settings on record: Compound concentration 1000.0 nM.
Assay [26] deals with Leucine-rich repeat serine/threonine-protein kinase 2 (Homo sapiens), Q5S007 [G2019S]. The settings on record: Compound concentration 1000.0 nM.
Assay [27] concerns the target Ankyrin repeat and protein kinase domain-containing protein 1 (Homo sapiens) (UniProt Q8NFD2). The settings on record: Compound concentration 1000.0 nM.
For assay [28], the target named is Dual specificity mitogen-activated protein kinase kinase 3 (Homo sapiens) (UniProt P46734). To be noted: Compound concentration 1000.0 nM.
Assay [29] deals with Mitogen-activated protein kinase kinase kinase kinase 5 (Homo sapiens) (UniProt Q9Y4K4). To be noted: Compound concentration 1000.0 nM.
Assay [30] has as its target Mitogen-activated protein kinase kinase kinase kinase 3 (Homo sapiens) (UniProt Q8IVH8). To be noted: Compound concentration 1000.0 nM.
The target of assay [31] is Phosphatidylinositol 4,5-bisphosphate 3-kinase catalytic subunit alpha isoform (Homo sapiens) (UniProt P42336). The settings on record: Compound concentration 1000.0 nM.
For assay [32], the target named is Serine/threonine-protein kinase Nek1 (Homo sapiens) (UniProt Q96PY6). The settings on record: Compound concentration 1000.0 nM.
Assay [33] addresses Dual specificity mitogen-activated protein kinase kinase 5 (Homo sapiens) (UniProt Q13163). The settings on record: Compound concentration 1000.0 nM.
In assay [34] the target is Casein kinase I isoform alpha-like (Homo sapiens) (UniProt Q8N752). To be noted: Compound concentration 1000.0 nM.
Sequence of Casein kinase I isoform alpha-like (Homo sapiens) (Q8N752 whole entry, canonical isoform): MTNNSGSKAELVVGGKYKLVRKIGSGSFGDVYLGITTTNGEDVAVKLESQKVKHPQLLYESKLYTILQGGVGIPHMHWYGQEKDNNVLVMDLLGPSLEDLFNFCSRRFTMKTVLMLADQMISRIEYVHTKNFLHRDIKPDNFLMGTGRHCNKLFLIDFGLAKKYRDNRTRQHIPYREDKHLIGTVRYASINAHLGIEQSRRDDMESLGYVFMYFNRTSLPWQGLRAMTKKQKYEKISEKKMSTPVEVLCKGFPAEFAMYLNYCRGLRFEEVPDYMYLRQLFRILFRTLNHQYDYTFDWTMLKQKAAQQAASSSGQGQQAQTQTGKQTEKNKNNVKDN
Assay [35] addresses 5-hydroxytryptamine receptor 1D (Homo sapiens) (UniProt P28221). To be noted: Compound concentration 10.0 uM.
For assay [36], the target named is Phosphorylase b kinase gamma catalytic chain, skeletal muscle/heart isoform (Homo sapiens) (UniProt Q16816). The settings on record: Compound concentration 1000.0 nM.
Assay [37] deals with Fibroblast growth factor receptor 4 (Homo sapiens) (UniProt P22455). The settings on record: Compound concentration 1000.0 nM.
Assay [38] deals with Tyrosine-protein kinase BTK (Homo sapiens) (UniProt Q06187). The settings on record: Compound concentration 1000.0 nM.
Assay [39] addresses Ephrin type-A receptor 6 (Homo sapiens) (UniProt Q9UF33). To be noted: Compound concentration 1000.0 nM.
Assay [40] addresses Serine/threonine-protein kinase/endoribonuclease IRE1 (Homo sapiens) (UniProt O75460). The settings on record: Compound concentration 1000.0 nM.
Assay [41] concerns the target Phosphatidylinositol 4-phosphate 5-kinase type-1 gamma (Homo sapiens) (UniProt O60331). To be noted: Compound concentration 1000.0 nM.
Assay [42] concerns the target Membrane-associated tyrosine- and threonine-specific cdc2-inhibitory kinase (Homo sapiens) (UniProt Q99640). To be noted: Compound concentration 1000.0 nM.
The test system of assay [43] is Tyrosine-protein kinase ABL1 (Homo sapiens), P00519 [Y253F]. The settings on record: Compound concentration 1000.0 nM.
Assay [44] has as its target Receptor tyrosine-protein kinase erbB-2 (Homo sapiens) (UniProt P04626). To be noted: Compound concentration 1000.0 nM.

The inhibition is the change of the read-out against control, counted positive when it falls.

Sequence of SRSF protein kinase 1 (Homo sapiens) (Q96SB4 whole entry): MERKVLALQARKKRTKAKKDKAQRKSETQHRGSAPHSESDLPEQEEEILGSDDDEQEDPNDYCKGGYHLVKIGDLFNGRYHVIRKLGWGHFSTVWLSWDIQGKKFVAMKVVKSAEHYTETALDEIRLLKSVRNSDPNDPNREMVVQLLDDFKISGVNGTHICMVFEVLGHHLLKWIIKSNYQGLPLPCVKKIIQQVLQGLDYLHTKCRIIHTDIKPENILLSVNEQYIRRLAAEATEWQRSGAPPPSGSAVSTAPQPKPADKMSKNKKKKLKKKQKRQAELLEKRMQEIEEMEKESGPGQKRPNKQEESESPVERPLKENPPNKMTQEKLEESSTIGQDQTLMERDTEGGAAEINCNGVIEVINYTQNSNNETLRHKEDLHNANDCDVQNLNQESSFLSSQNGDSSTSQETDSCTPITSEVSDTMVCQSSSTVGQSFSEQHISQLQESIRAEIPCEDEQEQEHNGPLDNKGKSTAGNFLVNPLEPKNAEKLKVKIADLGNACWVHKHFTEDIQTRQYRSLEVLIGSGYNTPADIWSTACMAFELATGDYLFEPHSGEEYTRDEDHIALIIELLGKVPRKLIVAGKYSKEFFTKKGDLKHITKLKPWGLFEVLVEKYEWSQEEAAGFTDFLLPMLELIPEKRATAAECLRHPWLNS
Sequence of Ankyrin repeat and protein kinase domain-containing protein 1 (Homo sapiens) (Q8NFD2 whole entry, the tested form may be a part): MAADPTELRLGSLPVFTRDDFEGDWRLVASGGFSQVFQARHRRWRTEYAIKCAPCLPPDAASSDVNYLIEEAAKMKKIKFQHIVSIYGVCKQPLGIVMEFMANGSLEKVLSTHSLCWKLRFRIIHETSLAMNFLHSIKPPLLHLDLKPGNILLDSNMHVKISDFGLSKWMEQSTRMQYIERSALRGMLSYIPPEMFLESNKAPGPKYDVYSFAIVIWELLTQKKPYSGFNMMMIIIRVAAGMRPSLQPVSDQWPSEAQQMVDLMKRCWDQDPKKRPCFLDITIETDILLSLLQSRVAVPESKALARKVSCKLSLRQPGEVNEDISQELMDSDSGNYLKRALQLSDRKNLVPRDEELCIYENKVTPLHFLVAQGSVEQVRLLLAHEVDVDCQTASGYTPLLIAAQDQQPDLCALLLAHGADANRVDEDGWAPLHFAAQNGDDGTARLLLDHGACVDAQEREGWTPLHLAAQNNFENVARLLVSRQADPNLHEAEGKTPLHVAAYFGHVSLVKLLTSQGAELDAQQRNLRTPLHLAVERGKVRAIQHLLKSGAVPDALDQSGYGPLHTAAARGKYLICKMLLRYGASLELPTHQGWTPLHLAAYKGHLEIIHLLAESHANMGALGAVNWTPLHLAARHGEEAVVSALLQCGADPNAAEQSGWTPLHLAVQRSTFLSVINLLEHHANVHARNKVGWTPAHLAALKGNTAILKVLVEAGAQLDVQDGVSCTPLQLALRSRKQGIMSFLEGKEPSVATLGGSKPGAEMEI
Sequence of Mast/stem cell growth factor receptor Kit (Homo sapiens) (P10721 whole entry): as the sequence (P10721 whole entry V559D/V654A) above, with D559V, A654V counted along it

Consider `CC1=C(C#N)C(c2ccc3[nH]nc(C)c3c2)C(C#N)=C(C)N1` [BAY-474], for which the inhibition is 26% in assay [1]; -6% in assay [2]; 5% in the assay listed under Rattus norvegicus; -3% in assay [3]; 3% in assay [4]; 18% in assay [5]. Further, the inhibition was -7% in assay [6]; 27% in assay [7]; 28% in assay [8]; 6% in assay [9]; -9% in [10]; -8% in assay [11]. In addition, the inhibition in assay [12] is -5%; in [13] it was -8%; in assay [14] it was 0%.
For `CC1=C(C#N)[C@@H](c2ccc3[nH]nc(C)c3c2)C(C#N)=C(c2ccc(Cl)cc2)N1` [BAY-827], the residual activity in assay [15] is 100%; in assay [16], 78.9%; in assay [17], 96.4%; in assay [18] it was 100%; in [19], 75.7%; in [20], 100%. Further, the residual activity was 100% in [21]; 77.4% in [22]; 100% in [23]; 100% in assay [24]; 96.3% in [25]; 79.5% in assay [26]. The residual activity is 100% in assay [27]; 53.5% in assay [28]; 54% in [29]; 100% in assay [30]; 100% in assay [31]; 100% in [32]. In addition, the residual activity in assay [33] was 49.9%; in assay [34] it was 100%; in assay [36], 100%; in assay [37], 100%; in assay [38] it was 99.9%; in assay [39], 100%. Further, the residual activity in assay [40] is 100%; in [41], 99.5%; in assay [42] it was 100%; in [43], 100%; in assay [44] it was 100%. Also, in assay [35], the inhibition is 4.2%.
